Experiment [1] deals with KRas G12C (Homo sapiens, UniProt P01116, C118S/C51S/C80L/G12C). Put plainly: KRas G12C Modification Assay (LCMS detection of covalent adduct). The experiment is classed as binding. Conditions: normalized percent of control; 5 μM concentration for 3 hours. The procedure: A 10 μL aliquot of each protein solution was then transferred to a 384 well microtiter plate. Initial compound stocks were generated at fifty times their desired final assay concentration in DMSO.
Exemplary compounds of Formula (I) were diluted 25-fold into K-Ras Assay Buffer to a final of two times their final concentration. A 10 μL aliquot of each diluted compound solution was then added to each of the protein solutions in the microtiter plate to initiate reaction. […] At each time point, the reactions were quenched with 20 μL of a 25 mM acetic acid solution. […] Once all reactions were quenched, the plates were heat sealed and the samples were injected into a LC/MS system for data acquisition.
Samples were injected in their liquid phase onto a C-3 reverse phase column to remove assay buffer and prepare the samples for mass spectrometer. The proteins were eluted from the column using an acetonitrile gradient and fed directly into the mass analyzer. Initial raw data analysis took place in Agilent MassHunter software immediately post data acquisition.
Raw data analysis of the intact protein was exclusively a deconvolution of the multiple charge states of each protein in solution using a maximum entropy deconvolution provided in Mass Hunter. To minimize complexity, only the data over limited mass ranges were considered for analysis, with a minimum of one Dalton mass step intervals. The heights of all masses identified during raw data analysis were exported to be further analyzed in Spotfire® data analysis software.
Final data analysis was a multistep process in the Spotfire® data analysis software package. Briefly, each protein mass was calculated as a percent of the total signal of that sample, that percentage was then normalized to the percentage of signal of the protein in the absence of reactive compounds. Those normalized signals were reported as normalized percent of control (POC). […] Key: “A”≤25% POC; “B”>25% POC-≤50% POC; “C”>50% POC and ND=not determined.

Experiment [2] addresses KRas G12C (Homo sapiens, UniProt P01116, G12C). Put plainly: Cellular inhibition of KRas G12C measured by Phospho-ERK in NCI-H358 cells. The experiment is classed as cell-based. Conditions: pERK(Thr202/Tyr204) normalized with GAPDH, NCI-H358 cells, 3 hours; read-out: IC50. The method, boiled down:
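NCI-H358 cells were allowed to attach for 8-12 hours, then exposed to compounds for 3 hours at 0.5% DMSO final. After formaldehyde fixation and methanol permeabilization, phospho-ERK (Thr202/Tyr204) was detected by in-cell immunofluorescence and normalized to GAPDH; IC50 came from a 4-parameter fit of percent-of-DMSO values.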

Take `C=CC(=O)N1CCN(c2nc(OC[C@@H]3CCCN3C)nc3c2CCN(c2c(F)c(O)cc4ccccc24)C3)CC1` [Example 249, 1-[4-[7-(2-fluoro-3-hydroxy-1-naphthyl)-2-[[(2S)-1-methylpyrrolidin-2-yl]methoxy]-6,8-dihydro-5H-pyrido[3,4-d]pyrimidin-4-yl]piperazin-1-yl]prop-2-en-1-one]: the POC result at KRas G12C [1] is given as “C (“C”>50% POC)”. At KRas G12C [2], the IC50 (commonly the concentration that inhibits the measured activity by half) is 0.1 to 1000 nM.

Take `N#CC[C@H]1CN(c2nc(OCCCN3C[C@@H]4C[C@H]3CO4)nc3c2CCN(c2cccc4cccc(Cl)c24)C3)CCN1C(=O)/C=C/CF` [Example 585, 2-((S)-4-(2-(3-((1S,4S)-2-oxa-5-azabicyclo[2.2.1]heptan-5-yl)propoxy)-7-(8-chloronaphthalen-1-yl)-5,6,7,8-tetrahydropyrido[3,4-d]pyrimidin-4-yl)-1-((E)-4-fluorobut-2-enoyl)piperazin-2-yl)acetonitrile]: on KRas G12C [1], the POC entry is “C (“C”>50% POC)”. For the same compound, at KRas G12C [2], the 50% inhibitory concentration (IC50) was 0.1 to 1000 nM.

Regarding `C=C(F)C(=O)N1CCN(c2nc(OC[C@@H]3CCCN3)nc3c2CCN(c2cccc4cccc(Cl)c24)C3)C[C@@H]1CC#N` [Example 571, 2-((S)-4-(7-(8-Chloronaphthalen-1-yl)-2-((S)-pyrrolidin-2-ylmethoxy)-5,6,7,8-tetrahydropyrido[3,4-d]pyrimidin-4-yl)-1-(2-fluoroacryloyl)piperazin-2-yl)acetonitrile], the POC entry on KRas G12C [1] is on record as “C (“C”>50% POC)”. In addition, on KRas G12C [2], the IC50 lay in the range of 0.1 to 1000 nM.

Take `C=CC(=O)N1CCN(c2nc(OC[C@H]3CCN(C)C3)nc3c2CCN(c2cccc4ccccc24)C3)CC1CC#N` (stereo partly drawn) [Example 399, 2-(1-acryloyl-4-(2-(((S)-1-methylpyrrolidin-3-yl)methoxy)-7-(naphthalen-1-yl)-5,6,7,8-tetrahydropyrido[3,4-d]pyrimidin-4-yl)piperazin-2-yl)acetonitrile]: the POC result at KRas G12C [1] was “C (“C”>50% POC)”. For the same compound, the half-maximal inhibitory concentration (IC50) at KRas G12C [2] was 0.1 to 1000 nM.

On to `C=CC(=O)N1CCN(c2nc(OC[C@@H]3CCCN3C)nc3c2CCN(c2c(C)c(C)cc4[nH]c(=O)[nH]c24)C3)CC1` [Example 456, 5,6-dimethyl-4-[2-[[(2S)-1-methylpyrrolidin-2-yl]methoxy]-4-(4-prop-2-enoylpiperazin-1-yl)-6,8-dihydro-5H-pyrido[3,4-d]pyrimidin-7-yl]-1,3-dihydrobenzimidazol-2-one], for which the POC entry on KRas G12C [1] is reported as “C (“C”>50% POC)”. For the same compound, on KRas G12C [2], the half-maximal inhibitory concentration (IC50) is more than 1000 nM.

In the case of `C=CC(=O)N1CCN(c2nc(OC[C@@H]3CCCN3C)nc3c2CCN(c2cccc4ccccc24)C3)CC1CC#N` (stereo partly drawn) [Example 147, 2-[4-[2-[[(2S)-1-methylpyrrolidin-2-yl]methoxy]-7-(1-naphthyl)-6,8-dihydro-5H-pyrido[3,4-d]pyrimidin-4-yl]-1-prop-2-enoyl-piperazin-2-yl]acetonitrile], on KRas G12C [1], the POC entry is “C (“C”>50% POC)”. Moreover, the half-inhibitory concentration (IC50) on KRas G12C [2] was 0.1 to 1000 nM.

Turning to `C=CC(=O)N1CCN(c2nc(O[C@H](C)CN(C)CC)nc3c2CCN(c2cc(O)cc4ccccc24)C3)CC1` [Example 131, 1-[4-[2-[(1R)-2-[ethyl(methyl)amino]-1-methyl-ethoxy]-7-(3-hydroxy-1-naphthyl)-6,8-dihydro-5H-pyrido[3,4-d]pyrimidin-4-yl]piperazin-1-yl]prop-2-en-1-one], the POC entry at KRas G12C [1] is listed as “C (“C”>50% POC)”. Further, the half-inhibitory concentration (IC50) on KRas G12C [2] was 0.1 to 1000 nM.

Consider `C=C(F)C(=O)N1CCN(c2nc(OCCN(C)C)nc3c2CCN(c2cccc4cccc(C)c24)C3)C[C@@H]1CC#N` [Example 559, 2-[(2S)-4-[2-[2-(Dimethylamino)ethoxy]-7-(8-methyl-1-naphthyl)-6,8-dihydro-5H-pyrido[3,4-d]pyrimidin-4-yl]-1-(2-fluoroprop-2-enoyl)piperazin-2-yl]acetonitrile], for which the POC result on KRas G12C [1] is reported as “C (“C”>50% POC)”. Moreover, the IC50 on KRas G12C [2] fell in the range of 0.1 to 1000 nM.

Consider `C=C(F)C(=O)N1CCN(c2nc(OC[C@@H]3C[C@@H](F)CN3C)nc3c2CCN(c2cccc4cccc(C)c24)C3)C[C@@H]1CC#N` [Example 560, 2-[(2S)-4-[2-[[(2S,4R)-4-Fluoro-1-methyl-pyrrolidin-2-yl]methoxy]-7-(8-methyl-1-naphthyl)-6,8-dihydro-5H-pyrido[3,4-d]pyrimidin-4-yl]-1-(2-fluoroprop-2-enoyl)piperazin-2-yl]acetonitrile], for which, at KRas G12C [1], the POC result is listed as “C (“C”>50% POC)”. For the same compound, the IC50 on KRas G12C [2] lay within 0.1 to 1000 nM.

On to `CN1CCC[C@@H]1COc1nc2c(c(N3CCN(C(=O)/C=C/CF)[C@@H](CC#N)C3)n1)CCN(c1cccc3cccc(Cl)c13)C2` [Example 586, 2-[(2S)-4-[7-(8-chloro-1-naphthyl)-2-[[(2R)-1-methylpyrrolidin-2-yl]methoxy]-6,8-dihydro-5H-pyrido[3,4-d]pyrimidin-4-yl]-1-[(E)-4-fluorobut-2-enoyl]piperazin-2-yl]acetonitrile], for which the POC entry at KRas G12C [1] was “C (“C”>50% POC)”. Also, on KRas G12C [2], the concentration for half-maximal inhibition (IC50) is 0.1 to 1000 nM.

Take `C=CC(=O)N1CCN(c2nc(OC[C@@H]3CCN(C)C3)nc3c2CCN(c2cccc4ccccc24)C3)CC1CC#N` (stereo partly drawn) [Example 177, 2-[4-[2-[[(3R)-1-methylpyrrolidin-3-yl]methoxy]-7-(1-naphthyl)-6,8-dihydro-5H-pyrido[3,4-d]pyrimidin-4-yl]-1-prop-2-enoyl-piperazin-2-yl]acetonitrile]: the POC result at KRas G12C [1] is reported as “C (“C”>50% POC)”. Moreover, the IC50 at KRas G12C [2] lay in the range of 0.1 to 1000 nM.

As for `Cc1cccc2cccc(N3CCc4c(nc(OC[C@@H]5CCN(C)C5)nc4N4CCN(C(=O)/C=C/CF)[C@@H](CC#N)C4)C3)c12` [Example 581, 2-[(2S)-1-[(E)-4-fluorobut-2-enoyl]-4-[7-(8-methyl-1-naphthyl)-2-[[(3R)-1-methylpyrrolidin-3-yl]methoxy]-6,8-dihydro-5H-pyrido[3,4-d]pyrimidin-4-yl]piperazin-2-yl]acetonitrile], the POC result on KRas G12C [1] is “C (“C”>50% POC)”. In addition, at KRas G12C [2], the IC50 is 0.1 to 1000 nM.

As to `C=C(F)C(=O)N1CCN(c2nc(OC[C@@H]3CCCN3C)nc3c2CCN(c2cccc4ccnc(Cl)c24)C3)C[C@@H]1CC#N` [Example 595, 2-((S)-4-(7-(1-chloroisoquinolin-8-yl)-2-(((S)-1-methylpyrrolidin-2-yl)methoxy)-5,6,7,8-tetrahydropyrido[3,4-d]pyrimidin-4-yl)-1-(2-fluoroacryloyl)piperazin-2-yl)acetonitrile], the POC result at KRas G12C [1] was “C (“C”>50% POC)”. Moreover, the 50% inhibitory concentration (IC50) at KRas G12C [2] was 0.1 to 1000 nM.

As to `C=C(F)C(=O)N1CCN(c2nc(OCCCN3C[C@@H]4C[C@H]3CO4)nc3c2CCN(c2cccc4cccc(C)c24)C3)C[C@@H]1CC#N` [Example 566, 2-[(2S)-1-(2-Fluoroprop-2-enoyl)-4-[7-(8-methyl-1-naphthyl)-2-[3-[(1S,4S)-2-oxa-5-azabicyclo[2.2.1]heptan-5-yl]propoxy]-6,8-dihydro-5H-pyrido[3,4-d]pyrimidin-4-yl]piperazin-2-yl]acetonitrile], at KRas G12C [1], the POC result is given as “C (“C”>50% POC)”. Further, on KRas G12C [2], the 50% inhibitory concentration (IC50) fell in the range of 0.1 to 1000 nM.

Turning to `Cc1cccc2cccc(N3CCc4c(nc(OC[C@H]5CCCN5C)nc4N4CCN(C(=O)/C=C/CF)[C@@H](CC#N)C4)C3)c12` [Example 563, 2-[(2S)-1-[(E)-4-Fluorobut-2-enoyl]-4-[7-(8-methyl-1-naphthyl)-2-[[(2R)-1-methylpyrrolidin-2-yl]methoxy]-6,8-dihydro-5H-pyrido[3,4-d]pyrimidin-4-yl]piperazin-2-yl]acetonitrile], at KRas G12C [1], the POC result is “C (“C”>50% POC)”. In addition, the 50% inhibitory concentration (IC50) at KRas G12C [2] fell in the range of 0.1 to 1000 nM.

As to `C=C(F)C(=O)N1CCN(c2nc(OC[C@@H]3CCCN3C)nc3c2CCN(c2cccc4cccc(Br)c24)C3)C[C@@H]1CC#N` [Example 588, 2-((S)-4-(7-(8-Bromonaphthalen-1-yl)-2-(((S)-1-methylpyrrolidin-2-yl)methoxy)-5,6,7,8-tetrahydropyrido[3,4-d]pyrimidin-4-yl)-1-(2-fluoroacryloyl)piperazin-2-yl)acetonitrile], the POC entry on KRas G12C [1] is recorded as “C (“C”>50% POC)”. Also, at KRas G12C [2], the IC50 fell in the range of 0.1 to 1000 nM.

In the case of `C=CC(=O)N1CCN(c2nc(OCCCN3C[C@@H](F)[C@@H](F)C3)nc3c2CCN(c2cc(O)cc4ccccc24)C3)CC1` [Example 208, 1-(4-(2-(3-((3R,4S)-3,4-difluoropyrrolidin-1-yl)propoxy)-7-(3-hydroxynaphthalen-1-yl)-5,6,7,8-tetrahydropyrido[3,4-d]pyrimidin-4-yl)piperazin-1-yl)prop-2-en-1-one], the POC result on KRas G12C [1] was “C (“C”>50% POC)”. Also, the 50% inhibitory concentration (IC50) on KRas G12C [2] is more than 1000 nM.

As to `C=CC(=O)N1CCN(c2nc(OC[C@@H]3CCCN3C)nc3c2CCN(c2ncccc2C(F)(F)F)C3)CC1CC#N` (stereo partly drawn) [Example 373, 2-(1-acryloyl-4-(2-(((S)-1-methylpyrrolidin-2-yl)methoxy)-7-(3-(trifluoromethyl)pyridin-2-yl)-5,6,7,8-tetrahydropyrido[3,4-d]pyrimidin-4-yl)piperazin-2-yl)acetonitrile], the POC entry on KRas G12C [1] was “C (“C”>50% POC)”. On KRas G12C [2], the IC50 is more than 1000 nM.

These data come from US10689377B2 (Mirati Therapeutics, Inc., priority 2017, dated 2020).
